Test systems include OVCAR-8; KM12; IGROV-1; M14; UO-31; NCI/ADR-RES; OVCAR-5; A498; HL-60; NCI-H226; SK-OV-3; A549; RXF 393; Hs-578T; OVCAR-4; MCF7; SF-268; T47D; NCI-H23; M19-MEL.
What all share (assay): DTP human tumour cell line panel, 48 h

A word on the GI50: it is the concentration that inhibits growth by half.

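1) Cells in 96-well plates. 2) Compound, 48 h, 5 concentrations. 3) Linear interpolation between surrounding doses. 4) Unreached endpoint = highest concentration. GI50: concentration for 50% inhibition of growth.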 Activity calls are given as the source filed them. Rule as the data show it: active = GI50 up to about 1.1 µM and inactive = higher. Bounds are passed on as bounds.

As for `COC(=O)C1=C(C)NC2=C(C(=O)c3ccccc32)C1c1cn(-c2ccccc2)nc1-c1ccccc1` (configuration not stated), the GI50 in the assay with OVCAR-8 is > 100 µM (inactive); in the assay on KM12 it was 7.93 µM (inactive); with IGROV-1, 6.24 µM (inactive); with M14, > 100 µM (inactive); in the assay with UO-31, 3.91 µM (inactive); in the assay on NCI/ADR-RES, 70.6 µM (inactive). Moreover, the GI50 with OVCAR-5 was > 100 µM (inactive); in the assay on A498, > 65.9 µM (inactive); in the assay with HL-60 it was 23.2 µM (inactive); with NCI-H226, 74.1 µM (inactive); in the assay with SK-OV-3, > 100 µM (inactive); in the assay on A549, 12 µM (inactive). Also, the GI50 in the assay on RXF 393 was > 44.8 µM (inactive); in the assay on Hs-578T, > 100 µM (inactive); in the assay on OVCAR-4, > 100 µM (inactive); in the assay on MCF7 it was 26.8 µM (inactive); in the assay with SF-268 it was > 45.6 µM (inactive); in the assay with T47D, 20.3 µM (inactive). The GI50 with NCI-H23 is 20.7 µM (inactive).

As to `COc1cc([C@@H]2c3cc4c(cc3[C@@H](NC(=O)c3cccc([N+](=O)[O-])c3)C3COC(=O)[C@@H]32)OCO4)cc(OC)c1O` (some centres not stated), the concentration for 50% growth inhibition (GI50) in the assay with OVCAR-8 was 0.721 µM (active); with KM12 it was 1.47 µM (inactive); in the assay on IGROV-1 it was 3.85 µM (inactive); in the assay with M14, 0.621 µM (active); in the assay with UO-31 it was 3.89 µM (inactive); in the assay on M19-MEL, 2.55 µM (inactive). The GI50 was 2.23 µM (inactive) in the assay with OVCAR-5; 0.274 µM (active) with HL-60; 0.127 µM (active) with NCI-H226; 0.329 µM (active) in the assay on SK-OV-3; 0.0442 µM (active) in the assay with A549; 2.34 µM (inactive) with RXF 393. For the same compound, the GI50 is 10.5 µM (inactive) with OVCAR-4, 0.552 µM (active) in the assay on SF-268 and 0.189 µM (active) in the assay on NCI-H23.

`CCOP(=O)(OCC)/C(C#N)=C(\C)c1ccco1`: the GI50 with OVCAR-8, in the assay on KM12, in the assay on IGROV-1, with M14, with UO-31 and with NCI/ADR-RES was > 10 µM (inactive) each time. In addition, the GI50 in the assay on OVCAR-5, in the assay on A498, with HL-60, in the assay with NCI-H226, with SK-OV-3 and in the assay on A549 was > 10 µM (inactive) throughout. In addition, the GI50 in the assay on RXF 393, in the assay with Hs-578T, in the assay with OVCAR-4, in the assay with MCF7, in the assay with SF-268 and with T47D was > 10 µM (inactive) throughout. Besides, the GI50 in the assay with NCI-H23 was > 10 µM (inactive).

`S=C(Nc1cccc(C2(N3CCCCC3)CCCCC2)c1)Nc1cccc(C2(N3CCCCC3)CCCCC2)c1`: the GI50 is 24.3 µM (inactive) in the assay on OVCAR-8; 16 µM (inactive) with KM12; 54.5 µM (inactive) in the assay with IGROV-1; 18.7 µM (inactive) with M14; 16.9 µM (inactive) in the assay on UO-31; > 100 µM (inactive) with NCI/ADR-RES. Moreover, the GI50 is 66.4 µM (inactive) in the assay with OVCAR-5; 18.9 µM (inactive) with A498; 14.9 µM (inactive) in the assay on HL-60; 27.2 µM (inactive) with NCI-H226; > 100 µM (inactive) with SK-OV-3; 31.6 µM (inactive) with A549. Moreover, the GI50 with RXF 393 is 13.6 µM (inactive); in the assay with Hs-578T, 38.9 µM (inactive); in the assay with OVCAR-4, 35.6 µM (inactive); with MCF7 it was 31.3 µM (inactive); in the assay on SF-268, 36.8 µM (inactive); in the assay with T47D, 19.5 µM (inactive). Also, in the assay on NCI-H23, the GI50 was > 100 µM (inactive).

With `COc1ccc(C(=O)C(c2ccc(OC)cc2)C2OC(=O)C(Cl)=C2Cl)cc1` (configuration not stated), the GI50 in the assay with OVCAR-8 was 84.1 µM (inactive); with KM12, > 100 µM (inactive); with IGROV-1, > 100 µM (inactive); in the assay on M14, > 100 µM (inactive); in the assay on UO-31, > 100 µM (inactive); in the assay on M19-MEL it was > 100 µM (inactive). Also, the GI50 with OVCAR-5, in the assay on HL-60, in the assay with NCI-H226, in the assay on SK-OV-3, in the assay on A549 and in the assay on RXF 393 was > 100 µM (inactive) in each case. Also, the GI50 in the assay on OVCAR-4, in the assay on SF-268 and in the assay with NCI-H23 was > 100 µM (inactive) each time.

`OC(c1ccc(F)cc1)(c1ccc(F)cc1)C1CC1`: the GI50 is 37.2 µM (inactive) in the assay with OVCAR-8; 26.7 µM (inactive) in the assay with KM12; 28.9 µM (inactive) in the assay on IGROV-1; 21.5 µM (inactive) in the assay on M14; 21.3 µM (inactive) with UO-31; 21.3 µM (inactive) in the assay with NCI/ADR-RES. The GI50 in the assay on OVCAR-5 was 37.3 µM (inactive); in the assay on A498 it was 29.2 µM (inactive); in the assay with HL-60 it was 21.3 µM (inactive); with NCI-H226 it was 26.6 µM (inactive); in the assay with SK-OV-3 it was 37.9 µM (inactive); in the assay with A549 it was 26.6 µM (inactive). For the same compound, the GI50 in the assay on RXF 393 is 26.9 µM (inactive); in the assay on Hs-578T, 26.9 µM (inactive); with OVCAR-4, 26.2 µM (inactive); with MCF7, 35.7 µM (inactive); in the assay with SF-268, 32.2 µM (inactive); with T47D, 38 µM (inactive). The GI50 with NCI-H23 was 17.5 µM (inactive).

With `Cc1ccccc1C(C#N)/C(=N/NC(N)=S)C(=O)Nc1c(C)cccc1C` (configuration not stated), the GI50 is > 100 µM (inactive) in the assay on OVCAR-8; > 100 µM (inactive) in the assay on KM12; > 100 µM (inactive) in the assay on IGROV-1; > 100 µM (inactive) with M14; > 100 µM (inactive) in the assay on UO-31; 80 µM (inactive) in the assay with M19-MEL. Also, the GI50 was > 100 µM (inactive) in the assay on OVCAR-5; > 100 µM (inactive) in the assay with HL-60; > 100 µM (inactive) in the assay with NCI-H226; 75.9 µM (inactive) in the assay on A549; > 100 µM (inactive) in the assay with RXF 393; > 100 µM (inactive) with OVCAR-4. Also, the GI50 in the assay on SF-268 and in the assay on NCI-H23 was > 100 µM (inactive) in each case.

Regarding `CN(C)c1ccc(/C=C(\NC(=O)c2ccccc2)C(=O)NC(CCC(=O)O)C(=O)O)cc1` (configuration not stated), the GI50 in the assay on OVCAR-8, in the assay on KM12, with IGROV-1, in the assay with M14, in the assay with UO-31 and with NCI/ADR-RES was > 100 µM (inactive) each time. In addition, the GI50 with OVCAR-5, in the assay with A498, in the assay on HL-60, with NCI-H226, with SK-OV-3 and with A549 was > 100 µM (inactive) in each case. Also, the GI50 in the assay on RXF 393, with Hs-578T, in the assay with OVCAR-4, in the assay on MCF7, in the assay on SF-268 and in the assay on T47D was > 100 µM (inactive) throughout. In the assay with NCI-H23, the GI50 is > 100 µM (inactive).

Consider `Cn1ccnc1CCc1ccc(F)cc1F`, for which the GI50 in the assay with OVCAR-8, with KM12, with IGROV-1, with M14, in the assay on UO-31 and with NCI/ADR-RES was > 100 µM (inactive) in each case. Also, the GI50 with OVCAR-5, with A498, with HL-60, with NCI-H226, in the assay on SK-OV-3 and with A549 was > 100 µM (inactive) in each case. Besides, the GI50 in the assay on RXF 393, with Hs-578T, with OVCAR-4, with MCF7, in the assay with SF-268 and in the assay on T47D was > 100 µM (inactive) throughout. The GI50 in the assay on NCI-H23 is > 100 µM (inactive).

For `Cc1ccc(S(=O)(=O)NC(=O)NCC(=O)NCC(=O)O)cc1`, the GI50 with OVCAR-8, in the assay on KM12, in the assay on IGROV-1, in the assay with M14, in the assay with UO-31 and in the assay with NCI/ADR-RES was > 100 µM (inactive) in each case. Besides, the GI50 in the assay on OVCAR-5, in the assay on A498, in the assay on HL-60, with NCI-H226, in the assay on SK-OV-3 and with A549 was > 100 µM (inactive) throughout. Also, the GI50 in the assay with RXF 393, in the assay with Hs-578T, in the assay on OVCAR-4, in the assay with MCF7, with SF-268 and in the assay on T47D was > 100 µM (inactive) throughout. Besides, in the assay with NCI-H23, the GI50 is > 100 µM (inactive).

`Cc1cc2c(=O)cc(-c3ccc(C(F)(F)F)cc3)oc2c(C(=O)O)c1C`: the GI50 in the assay with OVCAR-8, in the assay on KM12, with IGROV-1, in the assay with M14, in the assay with UO-31 and with M19-MEL was > 100 µM (inactive) each time. Besides, the GI50 with OVCAR-5, with NCI-H226, in the assay with SK-OV-3, in the assay with A549, in the assay with RXF 393 and with OVCAR-4 was > 100 µM (inactive) each time. The GI50 with SF-268 and with NCI-H23 was > 100 µM (inactive) each time.

On to `Oc1cc(-c2ccccn2)nc2ccc(Cl)cc12`, for which the GI50 in the assay with OVCAR-8 was 44.2 µM (inactive); in the assay with KM12, 24 µM (inactive); with IGROV-1 it was 64.1 µM (inactive); in the assay on M14, 36.9 µM (inactive); in the assay on UO-31, 36.1 µM (inactive); in the assay on M19-MEL it was 24.8 µM (inactive). The GI50 in the assay on OVCAR-5 was > 100 µM (inactive); in the assay with HL-60, 10.9 µM (inactive); with SK-OV-3 it was 36 µM (inactive); in the assay on OVCAR-4, 47.1 µM (inactive); in the assay with NCI-H23 it was 29.5 µM (inactive).

Source of the values: ChEMBL document CHEMBL1201862, “PubChem BioAssay data set” (2004).
